According to patent publication US4333938A, “Imino derivatives of 5-aminobenzodioxole-1,3 which are useful as medicaments” (Laboratoires Sarget, priority 1979, dated 1982):
“And” between values parts separate entries of the source, which are not always exact repeats. Equal entries are not always repeated.

Tests used:
Wistar rat = test: oral toxicity (mortality) in the Wistar rat; assay type: in vivo
Procedure: (§1) The percentages of mortality produced by the compounds of this invention when administered orally to Swiss mice are shown in Table 1. The animals, free from specific pathogenic organisms were housed in an air conditioned room for 24 to 48 hours before the start of the experiment. They were separated into groups of 5 males and 5 females. The materials were administered to animals which had been fasted for 24 hours by means of a gastric tube in suspension in a 6% thickened julep using a volume equivalent to 0.1 ml per 10 g of body weight. […] They remained under observation for two weeks before being sacrificed and autopsied.
(§2) The toxicities of the compounds of Examples 2 and 3 were determined in the Wistar rat. The protocol which was followed was the same as that described for the mice, except that the compounds were administered in a volume equivalent to 0.5 ml per 100 g of body weight of rat. […] The product of Example 3 produced no mortality at 2000 mg/kg and 20% mortality at 3000 mg/kg.

[1] = test system: carrageenan-induced granulomas; test: activity on carrageenan-induced granulomas; assay type: in vivo, Male Wistar rats; conditions: for ED50: Rattus norvegicus, 24 h, dose which protects 50% of the animals to the extent of 30% with respect to wet weight of the granuloma, read-out: AD50 (the source's name)
Procedure: Male Wistar rats weighing 130 to 150 grams were given a subcutaneous injection in the central part of the skin of the back of 0.5 ml of an aqueous suspension of carrageenan. Two doses of the test substance are administered, one 30 minutes before and the other 6 hours after carrageenan. At the end of 24 hours the rats were sacrificed and the granulomas were removed and weighed before and after drying for 24 hours at 50° C. The difference in weight of the granulomas wet and dry represents the exudate
These AD50 are respectively 175(142-215) and 175(150-205) mg/kg.

[2] = oral toxicity (mortality) in the Wistar rat; assay type: in vivo; conditions: in vivo, 3000 mg/kg
Procedure: as §1, §2

SMILES: Cc1ccc(C=Nc2ccc3c(c2)OCO3)s1 [Example 2, N-(5-methyl-2-thienylidene)-5-aminobenzodioxole-1,3]
- mortality (in words) (Wistar rat; 3000 mg/kg): no mortality
- Exudate, % activity ([1]; 100 mg/kg administered twice): 31%
- Exudate, % animals 30% protected ([1]; 100 mg/kg administered twice): 62%
- Exudate, % animals 30% protected ([1]; 150 mg/kg administered twice): 25% and 14%
- Weight of dry granuloma, % animals 30% protected ([1]; 150 mg/kg administered twice): 25% and 14%
- Weight of wet granuloma, % animals 30% protected ([1]; 150 mg/kg administered twice): 25% and 14%
- Exudate, % activity ([1]; 200 mg/kg administered twice): 39%
- Exudate, % animals 30% protected ([1]; 200 mg/kg administered twice): 75%
- Weight of dry granuloma, % activity ([1]; 200 mg/kg administered twice): 41% and 22%
- Weight of dry granuloma, % animals 30% protected ([1]; 200 mg/kg administered twice): 75% and 50%
- Weight of wet granuloma, % activity ([1]; 200 mg/kg administered twice): 39% and 24%
- Weight of wet granuloma, % animals 30% protected ([1]; 200 mg/kg administered twice): 75% and 50%
- Exudate, % activity ([1]; 300 mg/kg administered twice): 18%
- Exudate, % animals 30% protected ([1]; 300 mg/kg administered twice): 2%
- Weight of dry granuloma, % activity ([1]; 300 mg/kg administered twice): 9%
- Weight of dry granuloma, % animals 30% protected ([1]; 300 mg/kg administered twice): 25%
- Weight of wet granuloma, % activity ([1]; 300 mg/kg administered twice): 18%
- Weight of wet granuloma, % animals 30% protected ([1]; 300 mg/kg administered twice): 25%
- ED50 [1]: 175 mg/kg

SMILES: C(=Nc1ccc2c(c1)OCO2)c1cccnc1 [Example 3, N-(3-pyridylidene)-5-aminobenzodioxole-1,3]
- mortality (in words) (Wistar rat; 2000 mg/kg): no mortality
- mortality at 336 h [2]: 20%
- Exudate, % activity ([1]; 100 mg/kg administered twice): 15% and 25%
- Exudate, % animals 30% protected ([1]; 100 mg/kg administered twice): 25% and 37%
- Weight of dry granuloma, % activity ([1]; 100 mg/kg administered twice): 12% and 22%
- Weight of wet granuloma, % activity ([1]; 100 mg/kg administered twice): 15% and 25%
- Weight of wet granuloma, % animals 30% protected ([1]; 100 mg/kg administered twice): 25% and 37%
- Exudate, % activity ([1]; 200 mg/kg administered twice): 27% and 34% and 38%
- Weight of dry granuloma, % activity ([1]; 200 mg/kg administered twice): 27% and 32% and 33%
- Weight of wet granuloma, % activity ([1]; 200 mg/kg administered twice): 27% and 33% and 34%
- Exudate, % activity ([1]; 250 mg/kg administered twice): 36%
- Exudate, % animals 30% protected ([1]; 250 mg/kg administered twice): 75%
- Weight of dry granuloma, % activity ([1]; 250 mg/kg administered twice): 33%
- Weight of dry granuloma, % animals 30% protected ([1]; 250 mg/kg administered twice): 62%
- Weight of wet granuloma, % activity ([1]; 250 mg/kg administered twice): 36%
- Weight of wet granuloma, % animals 30% protected ([1]; 250 mg/kg administered twice): 75%
- Exudate, % activity ([1]; 300 mg/kg administered twice): 35% and 43%
- Exudate, % animals 30% protected ([1]; 300 mg/kg administered twice): 87% and 75%
- Weight of dry granuloma, % activity ([1]; 300 mg/kg administered twice): 37% and 41%
- Weight of dry granuloma, % animals 30% protected ([1]; 300 mg/kg administered twice): 62% and 75%
- Weight of wet granuloma, % activity ([1]; 300 mg/kg administered twice): 35% and 43%
- Weight of wet granuloma, % animals 30% protected ([1]; 300 mg/kg administered twice): 87% and 75%
- ED50 [1]: 175 mg/kg
